What is called EC30 is the concentration at which the effect reaches the 30% level.

The structures appear in SMILES notation. Some results are limits rather than exact numbers.

The target of the first assay is T1, F508del (Homo sapiens, UniProt P13569, DEL508-508).
T1 construct: expressed in transfected cells
T1 sequence (P13569 with tags, fused parts or gaps DEL508-508): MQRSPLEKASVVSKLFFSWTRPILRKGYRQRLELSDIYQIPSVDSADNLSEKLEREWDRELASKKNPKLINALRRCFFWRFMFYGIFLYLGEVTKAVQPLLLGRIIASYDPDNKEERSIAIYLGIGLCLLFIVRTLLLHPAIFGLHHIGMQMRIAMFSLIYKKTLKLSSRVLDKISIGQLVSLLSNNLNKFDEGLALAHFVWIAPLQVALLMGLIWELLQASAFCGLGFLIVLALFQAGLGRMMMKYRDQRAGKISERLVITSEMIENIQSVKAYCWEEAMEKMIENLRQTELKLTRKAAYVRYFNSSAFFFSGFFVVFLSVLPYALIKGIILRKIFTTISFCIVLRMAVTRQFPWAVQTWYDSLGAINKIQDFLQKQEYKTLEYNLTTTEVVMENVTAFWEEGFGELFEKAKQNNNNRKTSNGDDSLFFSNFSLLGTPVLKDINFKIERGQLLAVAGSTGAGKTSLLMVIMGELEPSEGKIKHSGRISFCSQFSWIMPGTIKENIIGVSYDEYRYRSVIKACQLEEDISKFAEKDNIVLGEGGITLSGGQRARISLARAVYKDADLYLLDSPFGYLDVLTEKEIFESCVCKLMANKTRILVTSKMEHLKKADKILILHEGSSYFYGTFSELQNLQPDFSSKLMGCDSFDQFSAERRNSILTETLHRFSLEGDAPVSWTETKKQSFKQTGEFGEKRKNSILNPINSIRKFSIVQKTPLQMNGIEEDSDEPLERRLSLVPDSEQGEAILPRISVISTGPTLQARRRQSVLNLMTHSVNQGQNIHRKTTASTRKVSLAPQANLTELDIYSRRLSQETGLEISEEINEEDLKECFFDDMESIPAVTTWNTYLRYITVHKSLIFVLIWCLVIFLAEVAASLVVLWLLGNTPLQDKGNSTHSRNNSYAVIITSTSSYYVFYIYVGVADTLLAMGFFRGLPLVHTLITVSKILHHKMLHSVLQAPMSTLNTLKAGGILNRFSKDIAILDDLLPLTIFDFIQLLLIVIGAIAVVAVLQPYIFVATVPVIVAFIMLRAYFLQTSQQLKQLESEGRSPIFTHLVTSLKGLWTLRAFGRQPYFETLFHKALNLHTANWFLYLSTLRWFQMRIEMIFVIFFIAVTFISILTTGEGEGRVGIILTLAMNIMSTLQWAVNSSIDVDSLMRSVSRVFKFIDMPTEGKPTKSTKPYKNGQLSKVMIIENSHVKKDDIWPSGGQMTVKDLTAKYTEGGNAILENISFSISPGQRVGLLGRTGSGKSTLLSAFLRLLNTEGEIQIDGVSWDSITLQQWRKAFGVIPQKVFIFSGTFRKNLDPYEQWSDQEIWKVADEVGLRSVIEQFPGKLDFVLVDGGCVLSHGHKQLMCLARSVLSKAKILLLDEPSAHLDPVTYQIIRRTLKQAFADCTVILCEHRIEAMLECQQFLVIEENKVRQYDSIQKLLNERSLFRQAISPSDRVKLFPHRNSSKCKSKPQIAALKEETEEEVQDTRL
The experiment in a line: Protocol 2: FRET membrane potential optical assay (VIPR), identification of correction compounds. It is filed as cell-based. To be noted: F508del CFTR modulator activity; compounds of Table 1; read-out: EC30. The method in brief: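 NIH3T3 mouse fibroblasts stably expressing F508del-CFTR incubated with compound 16 h at 37 °C in serum-free medium, then loaded with CC2-DMPE/DiSBAC2(3) FRET dyes. Channel activated with 10 μM forskolin plus 20 μM genistein in Cl⁻-free (gluconate) bath; depolarisation from Cl⁻ efflux read on VIPR II.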
With `CC(C)COc1cc(F)cc(-c2ncc(C(=O)NS(=O)(=O)c3cccc(N)n3)c(N3C[C@@H](C)CC3(C)C)n2)c1` [Compound 2121, N-[(6-amino-2-pyridyl)sulfonyl]-2-(3-fluoro-5-isobutoxy-phenyl)-4-[(4S)-2,2,4-trimethylpyrrolidin-1-yl]pyrimidine-5-carboxamide], the EC30 was below 3000 nM. Still for that read-out and setting: the value for `CC1CN(c2ncccc2C(=O)NS(=O)(=O)c2cccc(OCC3OCc4ccccc4O3)n2)C(C)(C)C1` (stereo not drawn) [Compound 2627, N—[[6-(4H-1,3-benzodioxin-2-ylmethoxy)-2-pyridyl]sulfonyl]-2-(2,2,4-trimethylpyrrolidin-1-yl)pyridine-3-carboxamide] was below 3000 nM. Consider `CC(C)c1ccc(-c2ccc(C(=O)NS(=O)(=O)c3ccc[nH]c3=O)c(N3C[C@@H](C)CC3(C)C)n2)cc1` [Compound 2483, 6-(4-isopropylphenyl)-N-[(2-oxo-1H-pyridin-3-yl)sulfonyl]-2-[(4S)-2,2,4-trimethylpyrrolidin-1-yl]pyridine-3-carboxamide], for which the EC30 is below 3000 nM. The same measure, in the same setting: for `CC1CN(c2ncccc2C(=O)NS(=O)(=O)c2cccc(NCCCCNC(=O)OC(C)(C)C)n2)C(C)(C)C1` (stereo not drawn) [Compound 2335, tert-butyl N—[4-[[6-[[2-(2,2,4-trimethylpyrrolidin-1-yl)pyridine-3-carbonyl]sulfamoyl]-2-pyridyl]amino]butyl]carbamate] the value was 3000 to 10000 nM; for `CC1CN(c2ncccc2C(=O)NS(=O)(=O)c2cccc(OCC3(C)CC3)n2)C(C)(C)C1` (stereo not drawn) [Compound 2434, N—[[6-[(1-methylcyclopropyl)methoxy]-2-pyridyl]sulfonyl]-2-(2,2,4-trimethylpyrrolidin-1-yl)pyridine-3-carboxamide], below 3000 nM; for `CC(C)COc1cc(F)cc(-c2ccc(C(=O)NS(=O)(=O)c3cccc(N)n3)c(N3CC(C)C3)n2)c1` [Compound 2117, N-[(6-amino-2-pyridyl)sulfonyl]-6-(3-fluoro-5-isobutoxy-phenyl)-2-(3-methylazetidin-1-yl)pyridine-3-carboxamide], below 3000 nM.

As to `CCCOc1ccc(C)cc1-c1ccc(C(=O)NS(=O)(=O)c2cccc(N)n2)c(N2C[C@@H](C)CC2(C)C)n1` [Compound 2085, N-[(6-amino-2-pyridyl)sulfonyl]-6-(5-methyl-2-propoxy-phenyl)-2-[(4S)-2,2,4-trimethylpyrrolidin-1-yl]pyridine-3-carboxamide], the EC30 is below 3000 nM. Take `COc1cc(Nc2cccc(S(=O)(=O)NC(=O)c3cccnc3N3CC(C)CC3(C)C)n2)cc(OC)c1` (stereo not drawn) [Compound 2357, N—[[6-(3,5-dimethoxyanilino)-2-pyridyl]sulfonyl]-2-(2,2,4-trimethylpyrrolidin-1-yl)pyridine-3-carboxamide]: the EC30 was below 3000 nM. Still for that read-out and setting: the value for `CC(C)Cn1ccc(-c2cnc(N3CC(C)CC3(C)C)c(C(=O)NS(=O)(=O)c3cccc(N)n3)c2)n1` (stereo not drawn) [Compound 2303, N-[(6-amino-2-pyridyl)sulfonyl]-5-(1-isobutylpyrazol-3-yl)-2-(2,2,4-trimethylpyrrolidin-1-yl)pyridine-3-carboxamide] was 3000 to 10000 nM. Same read-out and setting: for `CC1CN(c2ncccc2C(=O)NS(=O)(=O)c2cccc(OCc3ccc(Cl)cc3)n2)C(C)(C)C1` (stereo not drawn) [Compound 2585, N—[[6-[(4-chlorophenyl)methoxy]-2-pyridyl]sulfonyl]-2-(2,2,4-trimethylpyrrolidin-1-yl)pyridine-3-carboxamide] the value was below 3000 nM; for `Cc1cccc(-c2ccc(C(=O)NS(=O)(=O)c3ccccc3)c(N3C[C@@H](C)CC3(C)C)n2)c1O` [Compound 2133, N-(benzenesulfonyl)-6-(2-hydroxy-3-methyl-phenyl)-2-[(4S)-2,2,4-trimethylpyrrolidin-1-yl]pyridine-3-carboxamide], below 3000 nM.

The assay is the same for the next values; noted with them: Table 3; compounds of Table 1 as modulators of CFTR activity; protocol not stated.
`COc1ncccc1S(=O)(=O)NC(=O)c1ccc(C(C)(C)C)nc1Oc1c(C)cc(C)cc1C` [Compound 191, 6-tert-butyl-N-[(2-methoxy-3-pyridyl)sulfonyl]-2-(2,4,6-trimethylphenoxy)pyridine-3-carboxamide]: the EC30 result is “+++ (“+++” means <3 uM)”. On to `CC(C)CCOc1cc(F)cc(-c2ccc(C(=O)NS(=O)(=O)c3ccc[nH]c3=O)c(N3[C@H](C)CC[C@@H]3C)n2)c1` [Compound 688, 2-[(2S,5R)-2,5-dimethylpyrrolidin-1-yl]-6-(3-fluoro-5-isopentyloxy-phenyl)-N-[(2-oxo-1H-pyridin-3-yl)sulfonyl]pyridine-3-carboxamide], for which the 30% effect concentration (EC30) entry is “+++ (“+++” means <3 uM)”. The same measure, in the same setting: for `Cc1cc(C)c(CN2c3ccccc3CCCC2C(=O)NS(=O)(=O)c2ccccc2)c(C)c1` (stereo not drawn) [Compound 604, N-(benzenesulfonyl)-1-[(2,4,6-trimethylphenyl)methyl]-2,3,4,5-tetrahydro-1-benzazepine-2-carboxamide] the value was “+++ (“+++” means <3 uM)”; for `COc1cccc(S(=O)(=O)NC(=O)c2ccc(-c3cc(F)cc(OCC(C)C)c3)nc2N2CCC(C)(C)CC2)c1` [Compound 510, 2-(4,4-dimethyl-1-piperidyl)-6-(3-fluoro-5-isobutoxy-phenyl)-N-(3-methoxyphenyl)sulfonyl-pyridine-3-carboxamide], “+++ (“+++” means <3 uM)”; for `Cc1cc(C)c(Oc2nc(-c3ccc(CC#N)cc3)ccc2C(=O)NS(=O)(=O)c2cccc(N)n2)c(C)c1` [Compound 638, N-[(6-amino-2-pyridyl)sulfonyl]-6-[4-(cyanomethyl)phenyl]-2-(2,4,6-trimethylphenoxy)pyridine-3-carboxamide], “++ (“++” means between 3 uM and 10 uM)”. `CCCC1CCCN(c2nc(-c3ccc(OC(C)C)nc3)ccc2C(=O)NS(=O)(=O)c2cccc(N)n2)C1` (stereo not drawn) [Compound 522, N-[(6-amino-2-pyridyl)sulfonyl]-6-(6-isopropoxy-3-pyridyl)-2-(3-propyl-1-piperidyl)pyridine-3-carboxamide]: the EC30 entry is “+++ (“+++” means <3 uM)”. Turning to `Cc1cccc(C)c1Cn1nc(-c2cccc(N(C)C)c2)cc1C(=O)NS(=O)(=O)c1ccccc1` [Compound 178, N-(benzenesulfonyl)-5-[3-(dimethylamino)phenyl]-2-[(2,6-dimethylphenyl)methyl]pyrazole-3-carboxamide], the EC30 result is reported as “+++ (“+++” means <3 uM)”. Still for that read-out and setting: for `Cc1cc(C)c(Cn2c(C(=O)NS(=O)(=O)c3cccc(N)n3)cc3cc(C(C)C)ccc32)c(C)c1` [Compound 404, N-[(6-amino-2-pyridyl)sulfonyl]-5-isopropyl-1-[(2,4,6-trimethylphenyl)methyl]indole-2-carboxamide] the value was “+++ (“+++” means <3 uM)”; for `CCOc1ccc(-c2ccc(C(=O)NS(=O)(=O)c3cccc(N)n3)c(Oc3ccc(C)cc3C)n2)cc1` [Compound 641, N-[(6-amino-2-pyridyl)sulfonyl]-2-(2,4-dimethylphenoxy)-6-(4-ethoxyphenyl)pyridine-3-carboxamide], “+++ (“+++” means <3 uM)”; for `Cc1ccc(-c2ccc(C(=O)NS(=O)(=O)c3ccc[nH]c3=O)c(N3[C@H](C)CC[C@@H]3C)n2)cc1` [Compound 392, 2-[(2R,5S)-2,5-dimethylpyrrolidin-1-yl]-N-[(2-oxo-1H-pyridin-3-yl)sulfonyl]-6-(p-tolyl)pyridine-3-carboxamide], “++ (“++” means between 3 uM and 10 uM)”.

These data come from patent US10758534B2 (Vertex Pharmaceuticals Incorporated, priority 2014, dated 2020).
